In patent publication US20200206198A1, “CFTR CHANNEL ACTIVATOR FOR USE IN THE TREATMENT AND/OR PREVENTION OF GLUTEN SENSITIVITY CONDITIONS” (priority 2017, published 2020):

Columns and labels:
[1] = biological target: T1, TG2 (Homo sapiens, UniProt P21980); assay: TG2 interaction and TG2 activity in Caco-2 cells; assay type: cell-based
T1 construct: Immunoprecipitations of endogenous proteins were performed on 500 μg of lysates from Caco-2 cells; host or cells: Caco-2
T1 sequence (P21980 1-687): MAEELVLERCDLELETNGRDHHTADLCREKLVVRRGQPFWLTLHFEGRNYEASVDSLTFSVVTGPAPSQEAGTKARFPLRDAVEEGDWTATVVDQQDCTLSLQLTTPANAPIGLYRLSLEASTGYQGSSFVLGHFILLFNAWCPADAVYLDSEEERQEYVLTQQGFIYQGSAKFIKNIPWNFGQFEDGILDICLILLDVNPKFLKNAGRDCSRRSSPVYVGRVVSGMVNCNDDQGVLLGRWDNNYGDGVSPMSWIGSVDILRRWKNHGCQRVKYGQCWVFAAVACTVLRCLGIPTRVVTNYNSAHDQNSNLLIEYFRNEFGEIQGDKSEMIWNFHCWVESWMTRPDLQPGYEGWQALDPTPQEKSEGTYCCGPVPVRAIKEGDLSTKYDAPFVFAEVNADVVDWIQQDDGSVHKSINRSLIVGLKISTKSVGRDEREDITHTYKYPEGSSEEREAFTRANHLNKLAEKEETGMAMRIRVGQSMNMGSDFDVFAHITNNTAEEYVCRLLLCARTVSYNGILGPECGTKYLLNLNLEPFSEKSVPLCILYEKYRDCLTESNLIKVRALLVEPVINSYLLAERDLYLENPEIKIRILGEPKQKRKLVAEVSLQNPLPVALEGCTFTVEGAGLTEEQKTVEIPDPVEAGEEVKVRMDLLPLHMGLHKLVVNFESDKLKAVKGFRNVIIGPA
Procedure: (§1) Human colon adenocarcinoma-derived Caco-2 and T84 cells were obtained from the ATCC. Cells were maintained in T25 flask in Modified Eagle Medium (MEM) for Caco-2, or Ham's F12+DMEM (1:1) for T84, supplemented with 10% fetal bovine serum (FBS), 2 mM Glutamine+1% Non Essential Amino Acids (NEAA) and the antibiotics penicillin\streptomycin (100 units/ml) (all reagents from Lonza) (Luciani, A., et al. 2010. Cells were grown in Transwells (Corning, 3470 or 3460) under the normal condition (Luciani, A., et al. 2012). Briefly, 8×10^4 or 5×10^5 cells were seeded in 6.5-mm diameter or 12-mm diameter, respectively, and grown until the RT reached 800 to 1,200 Ω·cm2. Transwells with a pore size of 0.4 μm were used. Medium in both the apical and basolateral chambers was changed every other day. Cells were treated with 20 μg/ml of either α-gliadin peptide P31-43 or […] or scrambled PGAV or modified P31-43 either biotin-tagged or not, for different time point (from 1 h short challenge up to 24 h). Cells were also treated with 50 or 100 μg/ml of P57-68 or PGAV peptides for 3 h. Caco-2 or T84 cells were also treated with: CFTR potentiators VX-770 (10 μM) or VX-532 (20 μM) (Selleck chemicals) or Genistein (10 μM) (Sigma-Aldrich) or in presence or absence of CFTR inhibitor172 (CFTRinh172, 20 μM) or 3-methyl-adenine (3-MA, 20 μM) (Calbiochem), Z-DON (20 nM, Zedira) or BAPTA-AM (10 μM, Calbiochem).
(§2) The whole lysate or membrane fraction proteins of cell lines and mice intestine homogenates were obtained from treated and untreated cells or mice as described. The equal amount of protein were resolved by SDS-PAGE gel and blotted with antibodies against: SQSTM1, (Sigma Aldrich, 108k4767) 1:1000, PPARγ (Santa Cruz Biotechnology, sc7273) 1:500, BECN1 (Abcam, ab58878) 1:1000, CFTR clone M3A7 (Abcam, ab4067) 1:500, phospho-ERK1/2 (php42/44, Cell Signaling Technology, #91101) 1:1000, UVRAG (Santa Cruz Biotechnology sc8215) 1:1000, NHERF-1 (BD, 611161) 1:1000, EZRIN (BD, 610603) 1:1000, hVps34 (SigmaV9764) 1:300, biotin (Abcam, ab1227) 1:2000, PKAr2a (BD, 610625) 1:500, Ubiquitin (Cell Signaling clone P4D1, #3936) 1:1000, CHIP (Calbiochem PC711) 1:500, Caspase-1 p10 (M-20) (Santa Cruz Biotechnology, sc-514) 1:200, NLRP3 (Abcam, ab4207), 1:500, IDO1 (monoclonal; cv152) 1:1000^[80], used as primary antibodies. Normalization was performed by probing the membrane with anti-β-actin (Cell Signaling, #4970) 1:1000, anti-Gapdh (Sigma-Aldrich, G8795) 1:1000 and anti-flottilin (Abcam ab15148) 1:1000 antibodies. Immunoprecipitations of endogenous proteins were performed on 500 μg of lysates from Caco-2 cells. The proteins were incubated for 12-18 h at 4° C. with 10 ug\ml of specific antibody followed by the addition of Protein A/G-agarose beads for 4 h at 4° C. The beads were then washed three times with lysis buffer and Laemmli's sample buffer was added to the samples. The membranes were then blotted with: CFTR clone CF3 (Abcam, ab2784) 1:1000, TG2 (clone CUB7402; NeoMarkers) 1:1000, CHIP (Calbiochem PC711) 1:500, Ubiquitin (Cell Signaling clone P4D1 3936), isopeptide (Abcam 422) 1:1000, PKAR2 (BD 610625) 1:500.
For detection of complex with biotnylated-P31-43 or immune-complex of glutamime-lysine bonds, the beads were resolved in non-reducing and non-denaturating conditions, and then blotted with Streptavidin-HRP (Sigma 52438) 1:3000 or anti-biotin (Abcam ab2103) 1:2500 and anti-isopeptide (Abcam 422) 1:1000.
TG2 enzymatic activity in Caco-2, treated as described above, was detected: 1) by incubating unfixed sections with biotin-mono-dansylcadaverine (MDC, 10 mM, Molecular Probe) for 1 h at room temperature and then stained with Alexa-fluor488-Streptavidin, as previously described (JI2008/2009) or 2) or by incorporation of 5(biotinamido)pentylamines (BAP) into protein substrates. For BAP-incorporation, 2 mM BAP (Soltec Ventures, B110) were directly added into the medium together with the indicated treatments. […]

[2] = tested on: Caco-2 cells; assay: Endosomal trafficking proteins in Caco-2 cells (immunoblot, endosomal fractions); assay type: cell-based, human
Procedure: as §1
as §2, with “The beads were then washed three times with lysis buffer and Laemmli's sample buffer was added to the samples. The membranes were then blotted with: CFTR clone CF3 (Abcam, ab2784) 1:1000, TG2 (clone CUB7402; NeoMarkers) 1:1000, CHIP (Calbiochem PC711) 1:500, Ubiquitin (Cell Signaling clone P4D1 3936), isopeptide (Abcam 422) 1:1000, PKAR2 (BD 610625) 1:500.” left out

Q: Which “effect on P31-43-induced interaction of TG2 and CFTR” value ([1]; Caco-2 cells) does the source give for `CC(C)(C)c1cc(C(C)(C)C)c(NC(=O)c2c[nH]c3ccccc3c2=O)cc1O` [VX-770, N-(2,4-di-tert-butyl-5-hydroxyphenyl)-4-oxo-1,4-dihydroquinoline-3-carboxamide] here?
A: abolished the P31-43-induced interaction of TG2 and CFTR

Q: And the “effect on P31-43-induced TG2 activation” value ([1]; Caco-2 cells preincubated with VX-770)?
A: negated the capability of P31-43 5 to induce TG2 activation

Q: What about the “impact on TG2-mediated transamidation reactions” value ([1]; Caco-2 cells pulsed with Ca2+) of the same molecule?
A: has no impact on TG2mediated transamidation reactions

Q: And the “effect on P31-43-induced reduction of BECN1, hVps34, UVRAG, Rab5 and Rab7” value ([2]; lost if 3-MA or CFTR inhibitor added)?
A: counteracted

Q: Which results are given for “α-gliadin peptide LGQQQPFPPQQPY (SEQ ID 1), induces an enterocyte stress response (P31-43 sequence of alpha-gliadin)”?
A: TG2-mediated glutamine-lysine bonds in CFTR immunoprecipitates ([1]; Caco-2 cells): induced the formation of TG2-mediated glutamime-lysine bonds; covalent interaction with TG2 ([1]; Caco-2 cells, shortly upon challenge): covalently interacted with TG2; interaction between TG2 and CFTR by co-immunoprecipitation ([1]; cells incubated with peptide): stimulated the interaction between TG2 and CFTR; Rab5 and Rab7 levels in endosomal protein fractions [2]: decreased; total cellular abundance of BECN1, hVps34 and UVRAG [2]: reduced the total cellular abundance
